Assay results as given in PubChem BioAssay (NCI).
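Values below derive from 48-hour exposures of cells grown in 96-well plates, with endpoints linearly interpolated between the two concentrations bracketing the appropriate inhibition level. Here, GI50 denotes the concentration required for 50% inhibition of growth. TGI marks complete inhibition of growth.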

Experiments:
Assay in all cases: NCI tumour cell line growth inhibition, 48 h
786-0 renal = tested on: 786-0 renal
A498 renal = tested on: A498 renal
A549 NSCLC = tested on: A549 NSCLC
ACHN renal = tested on: ACHN renal
BT-549 breast = tested on: BT-549 breast
CAKI-1 renal = tested on: CAKI-1 renal
CCRF-CEM leukemia = tested on: CCRF-CEM leukemia
COLO 205 colon = tested on: COLO 205 colon
DU-145 prostate = tested on: DU-145 prostate
EKVX NSCLC = tested on: EKVX NSCLC
HCC-2998 colon = tested on: HCC-2998 colon
HCT-116 colon = tested on: HCT-116 colon
HCT-15 colon = tested on: HCT-15 colon
HL-60(TB) leukemia = tested on: HL-60(TB) leukemia
HOP-62 NSCLC = tested on: HOP-62 NSCLC
HOP-92 NSCLC = tested on: HOP-92 NSCLC
HS 578T breast = tested on: HS 578T breast
HT29 colon = tested on: HT29 colon
IGROV1 ovarian = tested on: IGROV1 ovarian
K-562 leukemia = tested on: K-562 leukemia
KM12 colon = tested on: KM12 colon
M14 melanoma = tested on: M14 melanoma
MALME-3M melanoma = tested on: MALME-3M melanoma
MDA-MB-231 breast = tested on: MDA-MB-231 breast
MDA-MB-435 = tested on: MDA-MB-435
MOLT-4 leukemia = tested on: MOLT-4 leukemia
NCI-H226 lung = tested on: NCI-H226 lung
NCI-H23 lung = tested on: NCI-H23 lung
NCI-H460 lung = tested on: NCI-H460 lung
NCI-H522 lung = tested on: NCI-H522 lung
NCI/ADR-RES ovarian = tested on: NCI/ADR-RES ovarian
OVCAR-3 ovarian = tested on: OVCAR-3 ovarian
OVCAR-4 ovarian = tested on: OVCAR-4 ovarian
OVCAR-5 ovarian = tested on: OVCAR-5 ovarian
OVCAR-8 ovarian = tested on: OVCAR-8 ovarian
PC-3 prostate = tested on: PC-3 prostate
RXF 393 renal = tested on: RXF 393 renal
SF-268 CNS = tested on: SF-268 CNS
SF-295 CNS = tested on: SF-295 CNS
SF-539 CNS = tested on: SF-539 CNS
SK-MEL-2 melanoma = tested on: SK-MEL-2 melanoma
SK-MEL-28 melanoma = tested on: SK-MEL-28 melanoma
SK-MEL-5 melanoma = tested on: SK-MEL-5 melanoma
SK-OV-3 ovarian = tested on: SK-OV-3 ovarian
SN12C renal = tested on: SN12C renal
SNB-19 CNS = tested on: SNB-19 CNS
SNB-75 CNS = tested on: SNB-75 CNS
SR leukemia = tested on: SR leukemia
SW-620 colon = tested on: SW-620 colon
T-47D breast = tested on: T-47D breast
TK-10 renal = tested on: TK-10 renal
U251 CNS = tested on: U251 CNS
UACC-257 melanoma = tested on: UACC-257 melanoma
UACC-62 melanoma = tested on: UACC-62 melanoma
UO-31 renal = tested on: UO-31 renal

CC(=O)Nc1cccc(Nc2nc(N[C@@H](C)c3ccccc3)c3ccccc3n2)c1
GI50 (786-0 renal): 630 nM | TGI (786-0 renal): 4280 nM | GI50 (A498 renal): 278 nM | TGI (A498 renal): 1500 nM | GI50 (A549 NSCLC): 601 nM | TGI (A549 NSCLC): 5970 nM | GI50 (ACHN renal): 672 nM | TGI (ACHN renal): 6900 nM | GI50 (BT-549 breast): 3620 nM | TGI (BT-549 breast): 18700 nM | GI50 (CAKI-1 renal): 374 nM | TGI (CAKI-1 renal): 2770 nM | GI50 (CCRF-CEM leukemia): 372 nM | GI50 (COLO 205 colon): 625 nM | TGI (COLO 205 colon): 4340 nM | GI50 (DU-145 prostate): 651 nM | TGI (DU-145 prostate): 6400 nM | GI50 (EKVX NSCLC): 656 nM | TGI (EKVX NSCLC): 16500 nM | GI50 (HCC-2998 colon): 982 nM | TGI (HCC-2998 colon): 2530 nM | GI50 (HCT-116 colon): 459 nM | TGI (HCT-116 colon): 1940 nM | GI50 (HCT-15 colon): 355 nM | TGI (HCT-15 colon): 1910 nM | GI50 (HL-60(TB) leukemia): 303 nM | TGI (HL-60(TB) leukemia): 868 nM | GI50 (HOP-62 NSCLC): 808 nM | TGI (HOP-62 NSCLC): 7080 nM | GI50 (HOP-92 NSCLC): 373 nM | TGI (HOP-92 NSCLC): 4940 nM | GI50 (HS 578T breast): 361 nM | TGI (HS 578T breast): 2510 nM | GI50 (HT29 colon): 362 nM | TGI (HT29 colon): 5050 nM | GI50 (IGROV1 ovarian): 507 nM | TGI (IGROV1 ovarian): 2950 nM | GI50 (K-562 leukemia): 270 nM | TGI (K-562 leukemia): > 100000 nM | GI50 (KM12 colon): 439 nM | TGI (KM12 colon): 6450 nM | GI50 (M14 melanoma): 401 nM | TGI (M14 melanoma): 1610 nM | GI50 (MALME-3M melanoma): 470 nM | TGI (MALME-3M melanoma): 1900 nM | GI50 (MDA-MB-231 breast): 942 nM | TGI (MDA-MB-231 breast): 3600 nM | GI50 (MDA-MB-435): 169 nM | TGI (MDA-MB-435): 419 nM | GI50 (MOLT-4 leukemia): 491 nM | TGI (MOLT-4 leukemia): 6820 nM | GI50 (NCI-H226 lung): 738 nM | TGI (NCI-H226 lung): 21600 nM | GI50 (NCI-H23 lung): 387 nM | TGI (NCI-H23 lung): 2690 nM | GI50 (NCI-H460 lung): 356 nM | TGI (NCI-H460 lung): 2100 nM | GI50 (NCI-H522 lung): 322 nM | TGI (NCI-H522 lung): 2180 nM | GI50 (NCI/ADR-RES ovarian): 464 nM | TGI (NCI/ADR-RES ovarian): 4750 nM | GI50 (OVCAR-3 ovarian): 359 nM | TGI (OVCAR-3 ovarian): 1540 nM | GI50 (OVCAR-4 ovarian): 784 nM | TGI (OVCAR-4 ovarian): 11800 nM | GI50 (OVCAR-5 ovarian): 1390 nM | TGI (OVCAR-5 ovarian): 11600 nM | TGI (OVCAR-8 ovarian): 9300 nM | GI50 (PC-3 prostate): 408 nM | TGI (PC-3 prostate): 11400 nM | GI50 (RXF 393 renal): 154 nM | TGI (RXF 393 renal): 581 nM | GI50 (SF-268 CNS): 571 nM | TGI (SF-268 CNS): 3280 nM | GI50 (SF-295 CNS): 377 nM | TGI (SF-295 CNS): 1560 nM | GI50 (SF-539 CNS): 318 nM | TGI (SF-539 CNS): 1140 nM | GI50 (SK-MEL-2 melanoma): 832 nM | TGI (SK-MEL-2 melanoma): 6010 nM | GI50 (SK-MEL-28 melanoma): 1000 nM | TGI (SK-MEL-28 melanoma): 2430 nM | GI50 (SK-MEL-5 melanoma): 292 nM | TGI (SK-MEL-5 melanoma): 1070 nM | GI50 (SK-OV-3 ovarian): 679 nM | TGI (SK-OV-3 ovarian): 15200 nM | GI50 (SN12C renal): 608 nM | TGI (SN12C renal): 2860 nM | GI50 (SNB-19 CNS): 500 nM | TGI (SNB-19 CNS): 12600 nM | GI50 (SNB-75 CNS): 194 nM | TGI (SNB-75 CNS): 820 nM | GI50 (SR leukemia): 253 nM | TGI (SR leukemia): 2580 nM | GI50 (SW-620 colon): 425 nM | TGI (SW-620 colon): 5280 nM | GI50 (T-47D breast): 512 nM | TGI (T-47D breast): 6470 nM | GI50 (TK-10 renal): 6690 nM | TGI (TK-10 renal): 21200 nM | GI50 (U251 CNS): 525 nM | TGI (U251 CNS): 2900 nM | GI50 (UACC-257 melanoma): 1180 nM | TGI (UACC-257 melanoma): 3430 nM | GI50 (UACC-62 melanoma): 380 nM | TGI (UACC-62 melanoma): 1930 nM | GI50 (UO-31 renal): 697 nM | TGI (UO-31 renal): 2330 nM
